Test results from paper PMC12300041, “Tricyclic Isatin Derivatives as Anti-Inflammatory Compounds with High Kinase Binding Affinity” (Molecules, 2025).

Legend:
Test in all cases: KINOMEscan
Format in all cases: binding
TRPM6 = biological target: T1, TRPM6 (Homo sapiens, UniProt Q9BX84)
T1 construct: purchased Eurofins DiscoverX KINOMEscan
Procedure, shortened: (§1)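 Dissociation constants derive from a 12-point, half-log compound titration (highest 33 μM). Each binding reaction ran 1 h at room temperature before qPCR quantification of kinase captured on an immobilized affinity ligand.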

PFTK1 = biological target: T2, PFTK1 (Homo sapiens, UniProt O94921)
T2 construct: purchased Eurofins DiscoverX KINOMEscan
Procedure, shortened: (§2)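 Kd determination: 12-pt half-log series, top 33 μM; 1 h binding, RT; unbound kinase pulled down on immobilized ligand, measured by qPCR.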

ITK = biological target: T3, ITK (Homo sapiens, UniProt Q08881)
T3 construct: purchased Eurofins DiscoverX KINOMEscan
Procedure, shortened: as §2

PRKD2 = biological target: T4, PRKD2 (Homo sapiens, UniProt Q9BZL6)
T4 construct: purchased Eurofins DiscoverX KINOMEscan
Procedure, shortened: as §1

TRKB = biological target: T5, TRKB (Homo sapiens, UniProt Q16620)
T5 construct: purchased Eurofins DiscoverX KINOMEscan
Procedure, shortened: as §1

ARK5 = biological target: T6, ARK5 (Homo sapiens, UniProt O60285)
T6 construct: purchased Eurofins DiscoverX KINOMEscan
Procedure, shortened: as §1

PRKCI = biological target: T7, PRKCI (Homo sapiens, UniProt P41743)
T7 construct: purchased Eurofins DiscoverX KINOMEscan
Procedure, shortened: as §1

[1] = biological target: T8, TYK2 (JH2 domain-pseudokinase) (Homo sapiens, UniProt P29597)
T8 construct: TYK2 (JH2 domain-pseudokinase); purchased Eurofins DiscoverX KINOMEscan
Procedure, shortened: as §1

LIMK2 = biological target: T9, LIMK2 (Homo sapiens, UniProt P53671)
T9 construct: purchased Eurofins DiscoverX KINOMEscan
Procedure, shortened: as §1

PLK2 = biological target: T10, PLK2 (Homo sapiens, UniProt Q9NYY3)
T10 construct: purchased Eurofins DiscoverX KINOMEscan
Procedure, shortened: as §2

YANK3 = biological target: T11, YANK3 (Homo sapiens, UniProt Q86UX6)
T11 construct: purchased Eurofins DiscoverX KINOMEscan
Procedure, shortened: as §1

FLT1 = biological target: T12, FLT1 (Homo sapiens, UniProt P17948)
T12 construct: purchased Eurofins DiscoverX KINOMEscan
Procedure, shortened: as §2

PAK1 = biological target: T13, PAK1 (Homo sapiens, UniProt Q13153)
T13 construct: purchased Eurofins DiscoverX KINOMEscan
Procedure, shortened: as §1

RIOK2 = biological target: T14, RIOK2 (Homo sapiens, UniProt Q9BVS4)
T14 construct: purchased Eurofins DiscoverX KINOMEscan
Procedure, shortened: as §1

RIOK3 = biological target: T15, RIOK3 (Homo sapiens, UniProt O14730)
T15 construct: purchased Eurofins DiscoverX KINOMEscan
Procedure, shortened: as §2

CDKL1 = biological target: T16, CDKL1 (Homo sapiens, UniProt Q00532)
T16 construct: purchased Eurofins DiscoverX KINOMEscan
Procedure, shortened: as §1

DCAMKL2 = biological target: T17, DCAMKL2 (Homo sapiens, UniProt Q8N568)
T17 construct: purchased Eurofins DiscoverX KINOMEscan
Procedure, shortened: as §2

QSK = biological target: T18, QSK (Homo sapiens, UniProt Q9Y2K2)
T18 construct: purchased Eurofins DiscoverX KINOMEscan
Procedure, shortened: as §1

ERK5 = biological target: T19, ERK5 (Homo sapiens, UniProt Q13164)
T19 construct: purchased Eurofins DiscoverX KINOMEscan
Procedure, shortened: as §1

VEGFR2 = biological target: T20, VEGFR2 (Homo sapiens, UniProt P35968)
T20 construct: purchased Eurofins DiscoverX KINOMEscan
Procedure, shortened: as §2

NLK = biological target: T21, NLK (Homo sapiens, UniProt Q9UBE8)
T21 construct: purchased Eurofins DiscoverX KINOMEscan
Procedure, shortened: as §2

TAK1 = biological target: T22, TAK1 (Homo sapiens, UniProt O43318)
T22 construct: purchased Eurofins DiscoverX KINOMEscan
Procedure, shortened: as §2

LKB1 = biological target: T23, LKB1 (Homo sapiens, UniProt Q15831)
T23 construct: purchased Eurofins DiscoverX KINOMEscan
Procedure, shortened: as §2

EPHB3 = biological target: T24, EPHB3 (Homo sapiens, UniProt P54753)
T24 construct: purchased Eurofins DiscoverX KINOMEscan
Procedure, shortened: as §1

[2] = biological target: T25, RSK4 (Kin. Dom.2-C-term.) (Homo sapiens, UniProt Q9UK32)
T25 construct: RSK4 (Kin. Dom.2-C-term.); purchased Eurofins DiscoverX KINOMEscan
Procedure, shortened: as §1

p38-α = biological target: T26, p38-α (Homo sapiens, UniProt Q16539)
T26 construct: purchased Eurofins DiscoverX KINOMEscan
Procedure, shortened: as §1

BRAF = biological target: T27, BRAF (Homo sapiens, UniProt P15056)
T27 construct: purchased Eurofins DiscoverX KINOMEscan
Procedure, shortened: as §2

EPHA7 = biological target: T28, EPHA7 (Homo sapiens, UniProt Q15375)
T28 construct: purchased Eurofins DiscoverX KINOMEscan
Procedure, shortened: as §1

PIK3CA (H1047Y) = biological target: T29, PIK3CA (H1047Y) (Homo sapiens, UniProt P42336, H1047Y)
T29 construct: purchased Eurofins DiscoverX KINOMEscan
Procedure, shortened: as §1

NIM1 = biological target: T30, NIM1 (Homo sapiens, UniProt Q8IY84)
T30 construct: purchased Eurofins DiscoverX KINOMEscan
Procedure, shortened: as §1

CDK2 = biological target: T31, CDK2 (Homo sapiens, UniProt P24941)
T31 construct: purchased Eurofins DiscoverX KINOMEscan
Procedure, shortened: as §1

JAK3 (JH1domain-cat.) = biological target: T32, JAK3 (JH1domain-cat.) (Homo sapiens, UniProt P52333)
T32 construct: JAK3 (JH1domain-cat.); purchased Eurofins DiscoverX KINOMEscan
Procedure, shortened: as §1

SIK = biological target: T33, SIK (Homo sapiens, UniProt P57059)
T33 construct: purchased Eurofins DiscoverX KINOMEscan
Procedure, shortened: as §2

FGFR1 = biological target: T34, FGFR1 (Homo sapiens, UniProt P11362)
T34 construct: purchased Eurofins DiscoverX KINOMEscan
Procedure, shortened: as §1

DDR1 = biological target: T35, DDR1 (Homo sapiens, UniProt Q08345)
T35 construct: purchased Eurofins DiscoverX KINOMEscan
Procedure, shortened: as §2

ADCK3 = biological target: T36, ADCK3 (Homo sapiens, UniProt Q8NI60)
T36 construct: purchased Eurofins DiscoverX KINOMEscan
Procedure, shortened: as §2

PIP5K1A = biological target: T37, PIP5K1A (Homo sapiens, UniProt Q99755)
T37 construct: purchased Eurofins DiscoverX KINOMEscan
Procedure, shortened: as §1

DCAMKL1 = biological target: T38, DCAMKL1 (Homo sapiens, UniProt O15075)
T38 construct: purchased Eurofins DiscoverX KINOMEscan
Procedure, shortened: as §1

T35 sequence (Q08345 19-913): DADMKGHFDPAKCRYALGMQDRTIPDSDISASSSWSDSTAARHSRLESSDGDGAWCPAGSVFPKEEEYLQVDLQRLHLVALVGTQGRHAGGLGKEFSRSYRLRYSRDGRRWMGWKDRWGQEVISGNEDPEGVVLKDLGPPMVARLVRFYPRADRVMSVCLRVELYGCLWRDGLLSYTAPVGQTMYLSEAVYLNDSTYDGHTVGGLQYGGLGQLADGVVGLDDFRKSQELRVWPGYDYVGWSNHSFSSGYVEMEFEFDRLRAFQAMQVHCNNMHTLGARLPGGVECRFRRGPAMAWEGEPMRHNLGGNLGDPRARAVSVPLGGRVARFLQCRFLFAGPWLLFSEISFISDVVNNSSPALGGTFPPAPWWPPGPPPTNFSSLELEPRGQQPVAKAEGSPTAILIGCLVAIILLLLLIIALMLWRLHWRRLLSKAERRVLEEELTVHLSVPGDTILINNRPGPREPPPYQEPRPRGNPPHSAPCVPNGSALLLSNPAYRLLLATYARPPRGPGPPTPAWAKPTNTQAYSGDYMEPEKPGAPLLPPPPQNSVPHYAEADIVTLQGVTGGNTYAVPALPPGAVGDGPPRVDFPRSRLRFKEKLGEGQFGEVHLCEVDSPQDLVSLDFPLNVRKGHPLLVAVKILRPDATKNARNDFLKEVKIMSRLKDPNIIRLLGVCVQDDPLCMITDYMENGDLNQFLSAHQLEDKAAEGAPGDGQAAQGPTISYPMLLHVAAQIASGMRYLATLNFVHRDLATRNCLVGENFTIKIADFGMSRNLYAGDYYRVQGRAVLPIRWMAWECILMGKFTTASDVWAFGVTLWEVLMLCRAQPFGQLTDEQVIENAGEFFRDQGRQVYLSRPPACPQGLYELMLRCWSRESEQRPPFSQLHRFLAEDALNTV
T38 sequence (O15075 whole entry): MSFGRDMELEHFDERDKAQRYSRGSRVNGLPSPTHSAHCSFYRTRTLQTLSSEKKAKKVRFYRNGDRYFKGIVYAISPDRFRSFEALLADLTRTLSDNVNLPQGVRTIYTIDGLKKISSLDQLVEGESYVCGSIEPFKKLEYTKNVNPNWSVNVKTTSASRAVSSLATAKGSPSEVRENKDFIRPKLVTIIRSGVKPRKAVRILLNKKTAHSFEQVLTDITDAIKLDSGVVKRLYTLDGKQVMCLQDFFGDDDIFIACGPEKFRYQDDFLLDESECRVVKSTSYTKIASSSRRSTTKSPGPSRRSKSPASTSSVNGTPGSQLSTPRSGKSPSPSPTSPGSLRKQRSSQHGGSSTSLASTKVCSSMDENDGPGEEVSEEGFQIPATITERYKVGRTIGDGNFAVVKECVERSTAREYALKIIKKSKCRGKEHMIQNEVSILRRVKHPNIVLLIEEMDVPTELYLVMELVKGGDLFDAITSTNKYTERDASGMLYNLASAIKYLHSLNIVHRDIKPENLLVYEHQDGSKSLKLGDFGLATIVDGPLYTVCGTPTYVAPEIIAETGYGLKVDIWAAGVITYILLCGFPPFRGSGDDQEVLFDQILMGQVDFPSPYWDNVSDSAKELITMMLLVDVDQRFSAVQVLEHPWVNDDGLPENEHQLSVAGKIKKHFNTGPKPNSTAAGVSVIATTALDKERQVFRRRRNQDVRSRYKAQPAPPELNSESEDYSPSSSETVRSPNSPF
T2 sequence (O94921 whole entry): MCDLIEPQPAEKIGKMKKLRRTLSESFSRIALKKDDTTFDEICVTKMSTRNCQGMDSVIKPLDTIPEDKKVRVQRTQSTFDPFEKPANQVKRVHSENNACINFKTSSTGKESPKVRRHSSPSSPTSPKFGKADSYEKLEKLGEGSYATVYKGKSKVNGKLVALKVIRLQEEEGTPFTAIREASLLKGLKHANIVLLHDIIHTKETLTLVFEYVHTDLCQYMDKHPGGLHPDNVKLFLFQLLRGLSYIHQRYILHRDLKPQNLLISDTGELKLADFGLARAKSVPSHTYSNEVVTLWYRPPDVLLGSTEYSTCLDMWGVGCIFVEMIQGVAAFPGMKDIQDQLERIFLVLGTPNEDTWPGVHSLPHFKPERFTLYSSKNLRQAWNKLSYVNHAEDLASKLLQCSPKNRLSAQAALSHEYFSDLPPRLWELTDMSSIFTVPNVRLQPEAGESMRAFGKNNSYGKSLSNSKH
T13 sequence (Q13153 whole entry): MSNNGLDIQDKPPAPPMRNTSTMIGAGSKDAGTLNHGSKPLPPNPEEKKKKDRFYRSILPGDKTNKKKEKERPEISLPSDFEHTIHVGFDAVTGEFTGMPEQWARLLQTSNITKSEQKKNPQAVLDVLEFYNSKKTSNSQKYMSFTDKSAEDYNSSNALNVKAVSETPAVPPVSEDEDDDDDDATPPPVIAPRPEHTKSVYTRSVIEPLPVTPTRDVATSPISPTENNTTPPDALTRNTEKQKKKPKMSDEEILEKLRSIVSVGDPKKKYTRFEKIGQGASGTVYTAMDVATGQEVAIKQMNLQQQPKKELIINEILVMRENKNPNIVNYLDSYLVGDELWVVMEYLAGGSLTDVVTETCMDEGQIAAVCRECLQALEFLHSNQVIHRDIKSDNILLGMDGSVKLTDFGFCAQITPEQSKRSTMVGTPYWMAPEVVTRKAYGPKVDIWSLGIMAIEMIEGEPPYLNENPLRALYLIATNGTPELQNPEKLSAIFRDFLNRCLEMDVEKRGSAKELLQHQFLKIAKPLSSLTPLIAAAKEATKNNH
T15 sequence (O14730 whole entry): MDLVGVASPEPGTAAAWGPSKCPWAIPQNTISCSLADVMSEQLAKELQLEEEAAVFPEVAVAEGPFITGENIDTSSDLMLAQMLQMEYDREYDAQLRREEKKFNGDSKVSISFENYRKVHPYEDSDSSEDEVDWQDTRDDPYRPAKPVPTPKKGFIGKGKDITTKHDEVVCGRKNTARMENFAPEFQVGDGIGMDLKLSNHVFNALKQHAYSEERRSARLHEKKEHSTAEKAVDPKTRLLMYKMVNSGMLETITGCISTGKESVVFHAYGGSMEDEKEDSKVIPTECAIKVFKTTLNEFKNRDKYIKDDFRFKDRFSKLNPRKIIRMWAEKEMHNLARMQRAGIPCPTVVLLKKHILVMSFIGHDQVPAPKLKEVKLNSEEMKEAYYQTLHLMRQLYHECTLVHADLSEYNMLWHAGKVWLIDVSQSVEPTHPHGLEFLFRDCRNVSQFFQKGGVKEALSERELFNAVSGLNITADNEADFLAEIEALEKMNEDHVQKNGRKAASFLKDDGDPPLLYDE
T18 sequence (Q9Y2K2 whole entry): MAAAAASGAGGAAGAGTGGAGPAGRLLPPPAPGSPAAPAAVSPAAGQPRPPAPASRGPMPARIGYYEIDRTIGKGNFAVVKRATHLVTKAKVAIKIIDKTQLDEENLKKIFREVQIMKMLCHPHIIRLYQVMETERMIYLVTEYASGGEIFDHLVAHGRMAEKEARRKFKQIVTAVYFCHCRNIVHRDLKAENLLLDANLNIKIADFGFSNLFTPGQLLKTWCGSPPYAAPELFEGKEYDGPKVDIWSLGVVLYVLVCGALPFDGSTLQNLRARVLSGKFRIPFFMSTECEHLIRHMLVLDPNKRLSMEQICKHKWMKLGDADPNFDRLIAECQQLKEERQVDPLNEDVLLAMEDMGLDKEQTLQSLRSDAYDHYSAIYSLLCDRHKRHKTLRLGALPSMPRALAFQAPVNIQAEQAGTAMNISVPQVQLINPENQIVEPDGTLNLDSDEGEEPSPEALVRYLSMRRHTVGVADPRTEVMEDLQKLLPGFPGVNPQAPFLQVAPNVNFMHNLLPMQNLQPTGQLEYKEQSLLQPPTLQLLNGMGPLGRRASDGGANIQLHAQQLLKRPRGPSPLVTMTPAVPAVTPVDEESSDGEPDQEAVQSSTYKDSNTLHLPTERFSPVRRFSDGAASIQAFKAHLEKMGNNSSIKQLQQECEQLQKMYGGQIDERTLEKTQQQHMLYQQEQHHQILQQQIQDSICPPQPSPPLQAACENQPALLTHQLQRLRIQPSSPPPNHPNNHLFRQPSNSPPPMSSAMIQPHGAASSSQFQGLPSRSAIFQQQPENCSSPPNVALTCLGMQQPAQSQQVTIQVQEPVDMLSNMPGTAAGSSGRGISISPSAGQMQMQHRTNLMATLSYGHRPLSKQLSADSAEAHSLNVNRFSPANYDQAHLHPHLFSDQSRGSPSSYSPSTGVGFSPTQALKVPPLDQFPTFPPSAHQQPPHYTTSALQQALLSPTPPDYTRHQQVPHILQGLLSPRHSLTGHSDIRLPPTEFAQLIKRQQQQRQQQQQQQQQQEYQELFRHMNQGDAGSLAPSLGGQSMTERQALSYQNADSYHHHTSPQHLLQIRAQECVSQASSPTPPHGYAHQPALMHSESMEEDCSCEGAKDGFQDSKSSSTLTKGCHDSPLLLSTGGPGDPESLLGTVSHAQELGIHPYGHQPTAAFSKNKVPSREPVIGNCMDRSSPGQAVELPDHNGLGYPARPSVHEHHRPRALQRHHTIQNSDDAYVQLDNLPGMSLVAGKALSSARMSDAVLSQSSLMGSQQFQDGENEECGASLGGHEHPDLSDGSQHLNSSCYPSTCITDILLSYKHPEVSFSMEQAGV
T30 sequence (Q8IY84 whole entry): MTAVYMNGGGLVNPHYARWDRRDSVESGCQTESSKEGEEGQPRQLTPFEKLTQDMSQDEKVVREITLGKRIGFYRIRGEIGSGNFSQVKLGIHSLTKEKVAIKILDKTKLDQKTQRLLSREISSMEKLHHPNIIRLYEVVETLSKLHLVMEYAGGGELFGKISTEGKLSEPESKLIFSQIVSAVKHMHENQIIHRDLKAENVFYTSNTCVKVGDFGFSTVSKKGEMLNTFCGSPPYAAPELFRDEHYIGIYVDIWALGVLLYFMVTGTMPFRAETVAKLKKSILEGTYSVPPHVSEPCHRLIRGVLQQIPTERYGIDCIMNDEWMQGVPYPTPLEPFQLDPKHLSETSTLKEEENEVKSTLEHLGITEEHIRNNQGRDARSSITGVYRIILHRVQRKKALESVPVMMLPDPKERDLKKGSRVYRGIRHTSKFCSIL

In the case of O=C1Nc2c(cc([N+](=O)[O-])c3c2CCCC3)C1=NO [Compound 5d, 3-(Hydroxyimino)-5-nitro-1,3,6,7,8,9-hexahydro-2H-benzo[g]indol-2-one], the inhibition at 10 µM (TRPM6) is reported as 8%, the inhibition at 10 µM (PFTK1) is reported as 0% and the inhibition at 10 µM (ITK) is reported as 0%. The inhibition at 10 µM (PRKD2) was 77%, the inhibition at 10 µM (TRKB) was 34% and the inhibition at 10 µM (ARK5) was 24%. The inhibition at 10 µM (PRKCI) was 49%, the inhibition at 10 µM [1] was 89.8% and the inhibition at 10 µM (LIMK2) was 0%. It also gave an inhibition at 10 µM (PLK2) of 67%, an inhibition at 10 µM (YANK3) of 0% and an inhibition at 10 µM (FLT1) of 12%. It also gave an inhibition at 10 µM (PAK1) of 0%, an inhibition at 10 µM (RIOK2) of 80% and an inhibition at 10 µM (RIOK3) of 19%. The inhibition at 10 µM (CDKL1) was 42%, the inhibition at 10 µM (DCAMKL2) was 0% and the inhibition at 10 µM (QSK) was 14%. It also gave an inhibition at 10 µM (ERK5) of 0%, an inhibition at 10 µM (VEGFR2) of 39% and an inhibition at 10 µM (NLK) of 11%. The inhibition at 10 µM (TAK1) was 67%, the inhibition at 10 µM (LKB1) was 0% and the inhibition at 10 µM (EPHB3) was 0%. The inhibition at 10 µM [2] was 36%, the inhibition at 10 µM (p38-α) was 0% and the inhibition at 10 µM (BRAF) was 28%. For the same compound, the inhibition at 10 µM (EPHA7) was 9%, the inhibition at 10 µM (PIK3CA (H1047Y)) was 36% and the inhibition at 10 µM (NIM1) was 52%. It also gave an inhibition at 10 µM (CDK2) of 9%, an inhibition at 10 µM (JAK3 (JH1domain-cat.)) of 49% and an inhibition at 10 µM (SIK) of 9%. The inhibition at 10 µM (FGFR1) was 5%, the inhibition at 10 µM (DDR1) was 0% and the inhibition at 10 µM (ADCK3) was 12%. For the same compound, the inhibition at 10 µM (PIP5K1A) was 54% and the inhibition at 10 µM (DCAMKL1) was 29%.
